Results on 11 molecules are retold here after BindingDB's records for doi:10.1021/jm060797q (Teikyo University, 2006).

This assay is described as follows: Antagonist activity against 1-alpha,25-dihydroxy vitamin D3-induced HL60 cell differentiation by NBT reduction method.

On to `C=C1/C(=C\C=C2/CCC[C@]3(C)[C@@H]([C@H](C)C[C@H]4OC(=O)C(=C)[C@@H]4CCC)CC[C@@H]23)C[C@@H](O)[C@H](OCCCO)[C@@H]1O`, for which the midpoint of inhibition, the IC50, lay at 6.3 nM.

With `C=C1/C(=C\C=C2/CCC[C@]3(C)[C@@H]([C@H](C)C[C@@H]4OC(=O)C(=C)[C@H]4CC)CC[C@@H]23)C[C@@H](O)[C@H](C)[C@@H]1O`, inhibition was half-maximal at 6.7 nM (IC50).

Molecule `C=C1/C(=C\C=C2/CCC[C@]3(C)[C@@H]([C@H](C)C[C@@H]4OC(=O)C(=C)[C@@H]4CC(C)C)CC[C@@H]23)C[C@@H](O)[C@H](OCCCO)[C@@H]1O` displayed an IC50 of 9.3 nM. Consider `C=C1/C(=C\C=C2/CCC[C@]3(C)[C@@H]([C@H](C)C[C@H]4OC(=O)C(=C)[C@@H]4CC(C)C)CC[C@@H]23)C[C@@H](O)[C@H](C)[C@@H]1O`, for which the IC50 came to 11 nM. With `C=C1C(=O)O[C@H](C[C@@H](C)[C@H]2CC[C@H]3/C(=C/C=C4/C[C@@H](O)C[C@H](O)C4=C)CCC[C@]23C)[C@@H]1CCC` the figure was 6 nM; with `C=C1/C(=C\C=C2/CCC[C@]3(C)[C@@H]([C@H](C)C[C@@H]4OC(=O)C(=C)[C@H]4CCC)CC[C@@H]23)C[C@@H](O)[C@H](OCCCO)[C@@H]1O`, 6.3 nM; with `C=C1/C(=C\C=C2/CCC[C@]3(C)[C@@H]([C@H](C)C[C@H]4OC(=O)C(=C)[C@H]4CC)CC[C@@H]23)C[C@@H](O)[C@H](CCCO)[C@@H]1O`, 8.4 nM. With `C=C1C(=O)O[C@@H](C[C@@H](C)[C@H]2CC[C@H]3/C(=C/C=C4/C[C@@H](O)C[C@H](O)C4=C)CCC[C@]23C)[C@@H]1CCC` the figure was 6 nM; with `C=C1/C(=C\C=C2/CCC[C@]3(C)[C@@H]([C@H](C)C[C@H]4OC(=O)C(=C)[C@H]4CCCC)CC[C@@H]23)C[C@@H](O)[C@H](C)[C@@H]1O`, 6.7 nM; with `C=C1/C(=C\C=C2/CCC[C@]3(C)[C@@H]([C@H](C)C[C@H]4OC(=O)C(=C)[C@@H]4C)CC[C@@H]23)C[C@@H](O)[C@H](C)[C@@H]1O`, 8.1 nM.

On to `C=C1/C(=C\C=C2/CCC[C@]3(C)[C@@H]([C@H](C)C[C@H]4OC(=O)C(=C)[C@@H]4CCC)CC[C@@H]23)C[C@@H](O)C[C@@H]1O`, for which the IC50 is 6 nM. This IC50 and that of the molecule before are within 1.5-fold of each other.

A word on the IC50: it is the concentration that gives 50% inhibition.
